Legend:
[1] = Highest frequency of moderate liver toxicity observed during clinical trials, expressed as a percentage. [column '% BIOL' in source]; conditions: human
[2] = human
[3] = human; remark: listed apart in the source
[4] = human, serum
[5] = human, serum; remark: listed apart in the source
[6] = human; remark: listed apart in the source
[7] = human, serum, 4383 h
[8] = Highest frequency of acute liver toxicity observed during clinical trials, expressed as a percentage. [column '% AIGUE' in source]; conditions: human
[9] = Times to onset, minimal and maximal, observed in the indexed observations. [column 'DELAI' in source]; conditions: human
[10] = human; remark: listed apart in the source
[11] = human; remark: listed apart in the source
[12] = human; remark: listed apart in the source
[13] = human; remark: listed apart in the source
[14] = human; remark: listed apart in the source
[15] = human; remark: listed apart in the source
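Throughout, for Hepatotoxicity (association with vascular disease): count of indexed literature references reporting vascular liver injury in humans, e.g. peliosis hepatitis, hepatic veno-occlusive disease or Budd-Chiari syndrome.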
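Throughout, for Hepatotoxicity (benign tumour): value is a count of indexed literature references citing a benign tumour confirmed by histopathology.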
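Throughout, for Hepatotoxicity (choleostasis): human cholestatic liver injury, shown by histopathology or by peak ALT or AST elevation over alkaline phosphatase ratio below 2, value counts indexed literature reports.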
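Throughout, for Hepatotoxicity (chronic liver disease): chronic liver injury confirmed by histopathology or persistently raised serum aminotransferase activity beyond 6 months, value given as the count of indexed literature references.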
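Throughout, for Hepatotoxicity (cirrhosis): value is a count of indexed literature references reporting cirrhosis confirmed by histopathology.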
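Throughout, for Hepatotoxicity (cytolytic): human cytolytic liver injury, shown by histopathology or by a ratio above 5 of peak ALT or AST elevation to alkaline phosphatase elevation, value counts indexed references.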
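Throughout, for Hepatotoxicity (granulomatous hepatitis): value is a count of indexed literature references reporting granulomatous liver disease confirmed by histopathology.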
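Throughout, for Hepatotoxicity (malignant tumour): malignant tumour confirmed by histopathology, value gives the count of indexed literature references reporting it.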
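Throughout, for Hepatotoxicity (severe hepatitis): human clinical data: severe hepatitis, meaning potentially life-threatening liver failure or clinically observed cases, the value counts how many indexed literature references report it.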
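Throughout, for Hepatotoxicity (steatosis): steatosis confirmed by histopathology, value is the count of indexed references.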

Compound	Hepatotoxicity (moderate) [1] [%]	Hepatotoxicity (malignant tumour) [2]	Hepatotoxicity (association with vascular disease) [3]	Hepatotoxicity (acute) [4]	Hepatotoxicity (moderate) [5]	Hepatotoxicity (steatosis) [6]	Hepatotoxicity (chronic liver disease) [7]	Hepatotoxicity (acute) [8] [%]	Hepatotoxicity (time to onset) [9]	Hepatotoxicity (benign tumour) [10]	Hepatotoxicity (choleostasis) [11]	Hepatotoxicity (cytolytic) [12]	Hepatotoxicity (severe hepatitis) [13]	Hepatotoxicity (granulomatous hepatitis) [14]	Hepatotoxicity (cirrhosis) [15]	Hepatotoxicity (moderate) ([1]; Liver) [%]	Hepatotoxicity (acute) ([8]; Liver) [%]	Hepatotoxicity (severe hepatitis) ([13]; Liver)
CC(C)Cc1ccc(CC(=O)O)cc1 [IBUFENAC]	40	0	0	3	2	0	0	5	4 months	0	1	3	1	0	0	–	–	–
c1cnc(N2CCN(Cc3ccc4c(c3)OCO4)CC2)nc1 [PIRIBEDIL]	10	0	0	0	2	0	0	0	12 days - 2.5 months	0	0	0	0	0	0	–	–	–
N[C@@H]1[C@H]2CN(c3nc4c(cc3F)c(=O)c(C(=O)O)cn4-c3ccc(F)cc3F)C[C@@H]12 [TROVAFLOXACIN]	–	0	0	6	4	0	0	–	5 days - 4 weeks	0	1	6	–	0	0	2.3	0	1
Clc1ccccc1C(c1ccccc1)(c1ccccc1)n1ccnc1 [CLOTRIMAZOLE]	40	0	0	0	8	0	0	0	17 days	0	0	0	0	0	0	–	–	–
OC[C@H]1O[C@@H](n2cnc3c2NC=NC[C@H]3O)C[C@@H]1O [PENTOSTATIN]	81.3	0	0	1	16	1	0	0	1 day - 2 months	0	0	1	2	0	0	–	–	–
O=[As](O)(O)c1ccc(NCCNc2ccc([As](=O)(O)O)cc2)cc1 [DIFETARSONE]	6	0	0	2	1	0	0	0	2 days - 3 weeks	0	2	2	0	0	0	–	–	–
CC(C)=CCC1C(=O)N(c2ccccc2)N(c2ccccc2)C1=O [FEPRAZONE]	0	0	0	2	1	0	0	0	2 weeks - 1 month	0	2	2	0	1	0	–	–	–
C=CC1=C(C(=O)O)N2C(=O)[C@@H](NC(=O)/C(=N\O)c3csc(N)n3)[C@H]2SC1	28.6	0	0	1	43	0	0	0	2 days	0	0	0	0	1	0	–	–	–
O=C(O)CCNC(=O)c1ccc(/N=N/c2ccc(O)c(C(=O)O)c2)cc1 [BALSALAZIDE]	0	0	0	1	0	0	0	0	8 days	0	1	0	0	0	0	–	–	–
Cc1cn([C@H]2C[C@H](F)[C@@H](CO)O2)c(=O)[nH]c1=O [ALOVUDINE]	0	0	0	1	0	0	0	3.3	< 3 months	0	0	0	1	0	0	–	–	–
O=C1CN=C(c2ccccc2)c2c(sc3c2CCCC3)N1 [BENTAZEPAM]	0	0	0	2	1	0	3	0	1 month - 6 months	0	0	2	0	0	1	–	–	–
O=C(COc1ccc(Cl)cc1)N1CCN(Cc2ccc3c(c2)OCO3)CC1 [FIPEXIDE]	0	0	0	4	0	0	0	0	15 days - 3 months	0	0	3	1	0	0	–	–	–
SERRAPEPTASE	0	0	0	1	0	0	0	0	2 days	0	0	0	0	1	0	–	–	–
CCNC1=Nc2ccc(Cl)cc2C(C)(c2ccccc2)O1 (stereo not given) [ETIFOXINE]	0	0	0	1	0	0	0	0	11 days	0	0	1	0	0	0	–	–	–

Source: ChEMBL document CHEMBL3137667, “[Drug-induced liver injury; fourteenth updated edition of the bibliographic database of liver injuries and related drugs]” (Gastroenterol Clin Biol, 2004)
